SMILES strings stand for the structures.

The test system of this experiment is T1, endo-1,4-β-xylanase.
T1 construct: gene GH10 xylanase; codon-optimised synthetic gene in pET26b(+); N-terminal PelB leader, C-terminal 6xHis, tags kept; ~81 kDa; E. coli BL21(DE3)
The experiment in a line: fluorescence of released CMU (ex […] nm, em […] nm), Lineweaver-Burk. The format is biochemical, uncultured bacterium. Particulars: pH 7, 37°C, 50 mM sodium phosphate.

As to `Cc1cc(=O)oc2cc(O[C@@H]3OC[C@@H](O[C@@H]4OC[C@@H](O)[C@H](O)[C@H]4O)[C@H](O)[C@H]3O)c(Cl)cc12` [CMU-X2, 6-chloro-4-methylumbelliferyl xylobioside], the Km was determined as 32 ± 4.72 µM.

These data come from article PMC6314593, “Characterization of novel lignocellulose-degrading enzymes from the porcupine microbiome using synthetic metagenomics” (PLoS ONE, 2019).
